According to patent publication US4364958A, “1-Substituted-3-cycloalkyl-sulfonyl-pyrrolidine-2,5-dione derivatives and fungicidal compositions thereof” (Chinoin Gyogyszer es Vegyeszeti Termekek Gyara Rt., priority 1979, dated 1982):
Values after ≈ are worked out from the molar mass of the structure shown. Like-named read-outs stand apart in the source and are kept apart here.

Columns and labels:
Assay in all cases: minimal inhibitory concentration in Sabouraud medium
Assay type in all cases: cell-based
[1] = system: Saccharomyces cerevisiae OKI.1282; settings: Saccharomyces cerevisiae
Source text: Saccharomyces cerevisiae OKI.1282
(§1) As a medium Saboroud medium was employed.

[2] = system: Candida albicans CBS.562; settings: Candida albicans
Source text: Candida albicans CBS.562 "2"
as §1

[3] = system: Aspergillus niger CBS.12648; settings: Aspergillus niger
Source text: Aspergillus niger CBS.12648
as §1

[4] = system: Penicillium digitatum CBS.31948; settings: Penicillium digitatum
Source text: Penicillium digitatum CBS.31948
as §1

[5] = system: Sporotrichum schenkii CBS.34035; settings: Sporotrichum
Source text: Sporotrichum schenkii CBS.34035
as §1

[6] = system: Trichophyton rubrum CBS.30338; settings: Trichophyton rubrum
Source text: Trichophyton rubrum CBS.30338
as §1

[7] = system: Trichophyton mentagrophytes CBS.50148; settings: Trichophyton mentagrophytes
Source text: Trichophyton mentagrophytes CBS.50148
as §1

[8] = system: Epidermophyton floccosum OKI/IV.; settings: Epidermophyton floccosum
Source text: Epidermophyton floccosum OKI/IV.
as §1

[9] = CBS.50148, 72 h, 72 hours, read-out: minimal inhibitory concentration
[10] = CBS.50148, 144 h, 144 hours, read-out: minimal inhibitory concentration
[11] = CBS.50148, 288 h, 288 hours, read-out: minimal inhibitory concentration
[12] = 72 h, read-out: minimal inhibitory concentration
[13] = 144 h, read-out: minimal inhibitory concentration
[14] = 288 h, read-out: minimal inhibitory concentration
[15] = CBS.50148, read-out: Minimal inhibitory concentration inhibiting the growth
[16] = read-out: Minimal inhibitory concentration inhibiting the growth

Structure (SMILES)	MIC ([1]; OKI.1282, 24 h, 24 hours) [µg/mL]	MIC ([1]; OKI.1282, 48 h, 48 hours) [µg/mL]	MIC ([3]; CBS.12648, 72 h, 72 hours) [µg/mL]	MIC ([3]; CBS.12648, 144 h, 144 hours) [µg/mL]	MIC ([3]; CBS.12648, 288 h, 288 hours) [µg/mL]	MIC ([4]; CBS.31948, 72 h, 72 hours) [µg/mL]	MIC ([4]; CBS.31948, 144 h, 144 hours) [µg/mL]	MIC ([4]; CBS.31948, 288 h, 288 hours) [µg/mL]	MIC ([5]; CBS.34035, 72 h, 72 hours) [µg/mL]	MIC ([5]; CBS.34035, 144 h, 144 hours) [µg/mL]	MIC ([5]; CBS.34035, 288 h, 288 hours) [µg/mL]	MIC ([6]; CBS.30338, 72 h, 72 hours) [µg/mL]	MIC ([6]; CBS.30338, 144 h, 144 hours) [µg/mL]	MIC ([6]; CBS.30338, 288 h, 288 hours) [µg/mL]	MIC [7, 9] [µg/mL]	MIC [7, 10] [µg/mL]	MIC [7, 11] [µg/mL]	MIC [8, 12] [µg/mL]	MIC [8, 13] [µg/mL]	MIC [8, 14] [µg/mL]	also measured
O=C1CC(S(=O)(=O)C2CCCCC2)C(=O)N1c1ccc([N+](=O)[O-])cc1 (stereo not shown) [1-(p-nitrophenyl)-3-cyclohexylsulfonyl-pyrrolidine-2,5-dione]	25 (≈ 68.2 µM)	50 (≈ 136 µM)	75 (≈ 205 µM)	150 (≈ 409 µM)	150 (≈ 409 µM)	100 (≈ 273 µM)	150 (≈ 409 µM)	150 (≈ 409 µM)	25 (≈ 68.2 µM)	25 (≈ 68.2 µM)	25 (≈ 68.2 µM)	75 (≈ 205 µM)	75 (≈ 205 µM)	150 (≈ 409 µM)	75 (≈ 205 µM)	100 (≈ 273 µM)	100 (≈ 273 µM)	100 (≈ 273 µM)	150 (≈ 409 µM)	150 (≈ 409 µM)	MIC ([2]; CBS.562, 24 h, 24 hours): 75 µg/mL (≈ 205 µM); MIC ([2]; CBS.562, 48 h, 48 hours): 150 µg/mL (≈ 409 µM)
O=C1CC(S(=O)(=O)C2CCCCC2)C(=O)N1 (stereo not shown) [3-Cyclohexyl-sulfonyl-pyrrolidine-2,5-dione]						50 (≈ 204 µM)	50 (≈ 204 µM)	50 (≈ 204 µM)	150 (≈ 611 µM)	150 (≈ 611 µM)	150 (≈ 611 µM)	50 (≈ 204 µM)	75 (≈ 306 µM)	75 (≈ 306 µM)	50 (≈ 204 µM)	50 (≈ 204 µM)	75 (≈ 306 µM)	25 (≈ 102 µM)	25 (≈ 102 µM)	25 (≈ 102 µM)	MIC [7, 15]: 50 µg/mL (≈ 204 µM); MIC [8, 16]: 25 µg/mL (≈ 102 µM)
Cc1cccc(N2C(=O)CC(S(=O)(=O)C3CCCCC3)C2=O)c1 (stereo not shown) [1-m(tolyl)-3-cyclohexyl-sulfonyl-pyrrolidine-2,5-dione]	25 (≈ 74.5 µM)	25 (≈ 74.5 µM)	75 (≈ 224 µM)	100 (≈ 298 µM)	150 (≈ 447 µM)	10 (≈ 29.8 µM)	25 (≈ 74.5 µM)	25 (≈ 74.5 µM)	10 (≈ 29.8 µM)	25 (≈ 74.5 µM)	50 (≈ 149 µM)	5 (≈ 14.9 µM)	10 (≈ 29.8 µM)	25 (≈ 74.5 µM)	5 (≈ 14.9 µM)	25 (≈ 74.5 µM)	50 (≈ 149 µM)	5 (≈ 14.9 µM)	10 (≈ 29.8 µM)	25 (≈ 74.5 µM)	MIC ([2]; CBS.562, 24 h, 24 hours): 50 µg/mL (≈ 149 µM); MIC ([2]; CBS.562, 48 h, 48 hours): 100 µg/mL (≈ 298 µM)
COC(=O)c1ccc(N2C(=O)CC(S(=O)(=O)C3CCCCC3)C2=O)cc1OC(C)=O (stereo not shown) [Example 7, 1-(3-Acetoxy-4-methoxycarbonyl-phenyl)-3-cyclohexyl-sulfonyl-pyrrolidine-2,5-dione]			200 (≈ 457 µM)	200 (≈ 457 µM)	200 (≈ 457 µM)	50 (≈ 114 µM)	50 (≈ 114 µM)	100 (≈ 229 µM)	50 (≈ 114 µM)	100 (≈ 229 µM)	150 (≈ 343 µM)	25 (≈ 57.1 µM)	25 (≈ 57.1 µM)	50 (≈ 114 µM)	2.5 (≈ 5.71 µM)	2.5 (≈ 5.71 µM)	2.5 (≈ 5.71 µM)	10 (≈ 22.9 µM)	10 (≈ 22.9 µM)	10 (≈ 22.9 µM)	MIC [7, 15]: 2.5 µg/mL (≈ 5.71 µM); MIC [8, 16]: 10 µg/mL (≈ 22.9 µM)
CC(=O)c1ccc(N2C(=O)CC(S(=O)(=O)C3CCCCC3)C2=O)cc1 (stereo not shown) [1-(4-acetylphenyl)-3-cyclohexyl-sulfonyl-pyrrolidine-2,5-dione]	25 (≈ 68.8 µM)	50 (≈ 138 µM)	75 (≈ 206 µM)	150 (≈ 413 µM)	150 (≈ 413 µM)	75 (≈ 206 µM)	100 (≈ 275 µM)	150 (≈ 413 µM)	5 (≈ 13.8 µM)	25 (≈ 68.8 µM)	25 (≈ 68.8 µM)	10 (≈ 27.5 µM)	25 (≈ 68.8 µM)	50 (≈ 138 µM)	10 (≈ 27.5 µM)	25 (≈ 68.8 µM)	25 (≈ 68.8 µM)	25 (≈ 68.8 µM)	50 (≈ 138 µM)	75 (≈ 206 µM)	MIC ([2]; CBS.562, 24 h, 24 hours): 50 µg/mL (≈ 138 µM); MIC ([2]; CBS.562, 48 h, 48 hours): 75 µg/mL (≈ 206 µM)
O=C1CC(S(=O)(=O)C2CCCCC2)C(=O)N1c1ccccc1Cl (stereo not shown) [1-(2-chlorophenyl)-3-cyclohexyl-sulfonyl-pyrrolidine-2,5-dione]	25 (≈ 70.3 µM)	75 (≈ 211 µM)	50 (≈ 141 µM)	150 (≈ 422 µM)	150 (≈ 422 µM)	25 (≈ 70.3 µM)	50 (≈ 141 µM)	50 (≈ 141 µM)	10 (≈ 28.1 µM)	50 (≈ 141 µM)	50 (≈ 141 µM)	2.5 (≈ 7.03 µM)	10 (≈ 28.1 µM)	10 (≈ 28.1 µM)	2.5 (≈ 7.03 µM)	5 (≈ 14.1 µM)	5 (≈ 14.1 µM)	2.5 (≈ 7.03 µM)	5 (≈ 14.1 µM)	10 (≈ 28.1 µM)	MIC ([2]; CBS.562, 24 h, 24 hours): 50 µg/mL (≈ 141 µM); MIC ([2]; CBS.562, 48 h, 48 hours): 50 µg/mL (≈ 141 µM)
COc1ccc(N2C(=O)CC(S(=O)(=O)C3CCCCC3)C2=O)cc1 (stereo not shown) [1-(4-Methoxyphenyl)-3-cyclohexyl-sulfonyl-pyrrolidine-2,5-dione]	25 (≈ 71.1 µM)	50 (≈ 142 µM)	75 (≈ 213 µM)	100 (≈ 285 µM)	150 (≈ 427 µM)	100 (≈ 285 µM)	100 (≈ 285 µM)	150 (≈ 427 µM)	5 (≈ 14.2 µM)	10 (≈ 28.5 µM)	10 (≈ 28.5 µM)	10 (≈ 28.5 µM)	10 (≈ 28.5 µM)	10 (≈ 28.5 µM)	2.5 (≈ 7.11 µM)	75 (≈ 213 µM)	100 (≈ 285 µM)	5 (≈ 14.2 µM)	25 (≈ 71.1 µM)	75 (≈ 213 µM)	MIC ([2]; CBS.562, 24 h, 24 hours): 50 µg/mL (≈ 142 µM); MIC ([2]; CBS.562, 48 h, 48 hours): 150 µg/mL (≈ 427 µM)
Cc1ccccc1N1C(=O)CC(S(=O)(=O)C2CCCCC2)C1=O (stereo not shown) [1-(o-tolyl)-3-cyclohexyl-sulfonyl-pyrrolidine-2,5-dione]	25 (≈ 74.5 µM)	25 (≈ 74.5 µM)	100 (≈ 298 µM)	150 (≈ 447 µM)	150 (≈ 447 µM)	10 (≈ 29.8 µM)	50 (≈ 149 µM)	50 (≈ 149 µM)	10 (≈ 29.8 µM)	25 (≈ 74.5 µM)	50 (≈ 149 µM)	10 (≈ 29.8 µM)	25 (≈ 74.5 µM)	50 (≈ 149 µM)	10 (≈ 29.8 µM)	25 (≈ 74.5 µM)	25 (≈ 74.5 µM)	5 (≈ 14.9 µM)	10 (≈ 29.8 µM)	10 (≈ 29.8 µM)	MIC ([2]; CBS.562, 24 h, 24 hours): 75 µg/mL (≈ 224 µM); MIC ([2]; CBS.562, 48 h, 48 hours): 100 µg/mL (≈ 298 µM)
O=C1CC(S(=O)(=O)C2CCCCC2)C(=O)N1c1cccc([N+](=O)[O-])c1 (stereo not shown) [1-(3-nitrophenyl)-3-cyclohexyl-sulfonyl-pyrrolidine-2,5-dione]	75 (≈ 205 µM)	75 (≈ 205 µM)	75 (≈ 205 µM)	150 (≈ 409 µM)	150 (≈ 409 µM)	25 (≈ 68.2 µM)	50 (≈ 136 µM)	50 (≈ 136 µM)	25 (≈ 68.2 µM)	75 (≈ 205 µM)	75 (≈ 205 µM)	5 (≈ 13.6 µM)	5 (≈ 13.6 µM)	5 (≈ 13.6 µM)	2.5 (≈ 6.82 µM)	5 (≈ 13.6 µM)	25 (≈ 68.2 µM)	5 (≈ 13.6 µM)	10 (≈ 27.3 µM)	10 (≈ 27.3 µM)	MIC ([2]; CBS.562, 24 h, 24 hours): 50 µg/mL (≈ 136 µM); MIC ([2]; CBS.562, 48 h, 48 hours): 100 µg/mL (≈ 273 µM)
O=C1CC(S(=O)(=O)C2CCCCC2)C(=O)N1c1ccccc1[N+](=O)[O-] (stereo not shown) [1-(o-nitrophenyl)-3-cyclohexyl-sulfonyl-pyrrolidine-2,5-dione]	100 (≈ 273 µM)	200 (≈ 546 µM)	150 (≈ 409 µM)	200 (≈ 546 µM)	200 (≈ 546 µM)	25 (≈ 68.2 µM)	50 (≈ 136 µM)	50 (≈ 136 µM)	10 (≈ 27.3 µM)	50 (≈ 136 µM)	50 (≈ 136 µM)	50 (≈ 136 µM)	50 (≈ 136 µM)	75 (≈ 205 µM)	75 (≈ 205 µM)	150 (≈ 409 µM)	150 (≈ 409 µM)	75 (≈ 205 µM)	100 (≈ 273 µM)	150 (≈ 409 µM)	MIC ([2]; CBS.562, 24 h, 24 hours): 75 µg/mL (≈ 205 µM); MIC ([2]; CBS.562, 48 h, 48 hours): 150 µg/mL (≈ 409 µM)
O=C1CC(S(=O)(=O)C2CCCCC2)C(=O)N1c1cccc(Cl)c1 (stereo not shown) [1-(m-chlorphenyl)-3-cyclohexylsulfonyl-pyrrolidine-2,5-dione]	10 (≈ 28.1 µM)	25 (≈ 70.3 µM)	50 (≈ 141 µM)	100 (≈ 281 µM)	100 (≈ 281 µM)	10 (≈ 28.1 µM)	50 (≈ 141 µM)	50 (≈ 141 µM)	10 (≈ 28.1 µM)	25 (≈ 70.3 µM)	25 (≈ 70.3 µM)	2.5 (≈ 7.03 µM)	2.5 (≈ 7.03 µM)	2.5 (≈ 7.03 µM)	2.5 (≈ 7.03 µM)	2.5 (≈ 7.03 µM)	2.5 (≈ 7.03 µM)	2.5 (≈ 7.03 µM)	5 (≈ 14.1 µM)	10 (≈ 28.1 µM)	MIC ([2]; CBS.562, 24 h, 24 hours): 25 µg/mL (≈ 70.3 µM); MIC ([2]; CBS.562, 48 h, 48 hours): 75 µg/mL (≈ 211 µM)
